The text below walks through data of patent US20230248814A1, “COMPOSITIONS AND METHODS FOR TREATING MERKEL CELL CARCINOMA (MCC) USING HLA CLASS I SPECIFIC EPITOPES” (The Broad Institute, Inc., priority 2020, published 2023).

“Also recorded” adds a separate entry of the source.

For one assay, the system named is MCC cell lines. Briefly: HLA-I immunopeptidome (LC-MS/MS) of MCC cell lines at baseline and after IFN-γ. Type of assay: cell-based, human. The note with it: for increase in abundance of class I bound peptides (median): IFN-γ stimulation. The method, then: Immunoprecipitation and mass spectrometry analysis, and peptide identification. Up to 40 million or 0.2 g of MCC cells were immunoprecipitated. Briefly, MCC cells were harvested and lysed in ice-cold lysis buffer containing […] (pH 8.0), 1 mM EDTA (pH 8.0), 0.1 M sodium chloride, Triton X-100, 0.06 M octyl β-d-glucopyranoside, 100 U/mL DNAse I, 1 mM phenylmethanesulfonyl fluoride (all from Sigma Aldrich), and protease inhibitor cocktail (Roche Diagnostics). Cell lysate was centrifuged at 12,700 rpm at 4° C. for 22 min. Lysate supernatant was coupled with Gammabind Plus sepharose beads (GE Healthcare) and incubated with 10 µg of HLA-I antibody (Clone W6/32, Santa Cruz Biotechnologies) at 4° C. under rotary agitation for 3 h. After incubation, the lysate-bead-antibody mixture was briefly centrifuged and the supernatant was discarded. Beads were washed with lysis buffer, consisting of wash buffer containing 40 mM Tris (pH 8.0), 1 mM EDTA (pH 8.0), 0.1 M sodium chloride, 0.06 M octyl β-d-glucopyranoside, and 20 mM Tris buffer, without protease inhibitors. Gel loading tips (Fisherbrand) were used to remove as much fluid from beads as possible. Peptides of up to three immunoprecipitations were combined, acid eluted, and analyzed using LC/MS-MS as described previously (35, 82). Briefly, peptides were resuspended in 3% acetonitrile with 5% formic acid and loaded onto an analytical column (20-30 cm with 1.9 µm C18 Reprosil beads, Dr. Maisch HPLC GmbH);, packed in-house). Peptides were eluted in a 6-30% gradient (EasyLC 1000 or 1200, Thermo Fisher Scientific) and analyzed on a QExactive Plus, Fusion Lumos, or Orbitrap Exploris 480 (Thermo Fisher Scientific). For Lumos measurements, peptides were also subjected to fragmentation if they were singly charged. […] Fractions were analyzed on a Fusion Lumos or Orbitrap Exploris 480 equipped with a FAIMSpro interface (83).
Mass spectra were interpreted using Spectrum Mill software package v7.1 pre-Release (Broad Institute, Cambridge, MA). […] MS/MS spectra were searched against a protein sequence database that contained 90,904 entries, including all UCSC Genome Browser genes with hg19 annotation of the genome and its protein coding transcripts (52,788 entries), common human virus sequences (30,181 entries), recurrently mutated proteins observed in tumors from 26 tissues (4,595 entries), 264 common laboratory contaminants as well as protein sequences containing somatic mutations detected in MCC cell lines (3,076 entries). […]

In assay [1] the test system is PBMCs from patient MCC-367. Briefly: IFN-γ ELISpot with autologous PBMCs of patient MCC-367. Type of assay: cell-based, human. As to conditions: 10 ug/ml peptide. The method, then: ELISpot. Matching patient peripheral blood mononuclear cells (PBMCs) from patient MCC-367 were thawed, and 10^7 cells per well were seeded in 24 well plates overnight. Cells were stimulated with 10 ug/ml of the LT antigen peptide […] (SEQ ID NO:1) (identified in the MCC-367 HLA peptidome, FIG. 3F) in complete DMEM supplemented with 10% Human serum and 20 ng/ml IL-7 (PeproTech). After 3 days of stimulation, cells were supplemented with 20 units/mL IL-2 (PeproTech). After 10 days of stimulation, cells were cytokine deprived overnight. 50,000 cells per well were stimulated in an IFN- γ ELISpot assay with 10 ug/ml of the […] (SEQ ID NO:1) peptide. DMSO and an HIV-GAG peptide were used as negative controls. CEF (Mabtech) and PHA (Sigma Aldrich) were used as positive controls (not shown). ELISpot and T cell culture methods were described in detail previously (23, 86).

The subject of the next assay is healthy human volunteers. The note with it: one single s.c. administration; 8 subjects vs 4 placebo; cited from earlier work.
Assay [2] deals with ovarian carcinoma patients. The note with it: poly-ICLC with NY-ESO-1 peptide vaccine and Montanide; cited from earlier work.
The target in a further assay is USP7 (Homo sapiens, UniProt Q93009). The note with it: cited from earlier work.
Assay [3] has as its system advanced hormone refractory prostate cancer patients. The note with it: personalized vaccination combined with low dose estramustine; cited from earlier work.
A further assay concerns MCC-301 cell line. Briefly: Flow cytometry assessment of HLA-DR expression after IFN-γ. In kind it is cell-based, human. The method, then: (§1) Flow cytometry. Cells were dissociated with Versene and incubated with 5 µL Human TruStain FcX (Fc Receptor Blocking Solution; Biolegend # 422302) per million cells in 100 µL at room temperature for 10 min. Fluorophore-conjugated antibodies or respective isotype controls were added and incubated for another 30 min at 4° C. Cells were then washed once with PBS and resuspended in PBS or 4% paraformaldehyde and analyzed on an LSR Fortessa cytometer. For HLA-I and HLA-II detection, the following antibodies were used: HLA-ABC (W6/32 clone) conjugated to PE (BioLegend # 311406), APC (BioLegend # 311410), or AF647 (Santa Cruz Biotechnology # sc32235 AF647), and HLA-DR-FITC (BioLegend # 307604).

The subject of assay [4] is MCC lines. Briefly: RNA-seq of class I antigen presentation genes in MCC lines before and after IFN-γ. In kind it is cell-based, human. As to conditions: IFN-γ treatment vs baseline. As to the method: RNA sequencing and analysis. For samples from the MCC tumors and newly generated cell lines, RNA was first assessed for quality using the Agilent Bioanalyzer (DV200 metric). 100 ng of RNA were used as the input for first strand cDNA synthesis using Superscript III reverse transcriptase and Illumina’s TruSeq RNA Access Sample Prep Kit. Synthesis of the second strand of cDNA was followed by indexed adapter ligation with UMI (unique molecular index) adaptors. Subsequent PCR amplification enriched for adapted fragments. Amplified libraries were quantified, normalized, pooled, and hybridized with exome targeting oligos. Following hybridization, bead clean-up, elution, and PCR was performed to prepare library pools for sequencing on Illumina flowcell lanes. Transcriptomes were sequenced to a coverage of at least 50 million reads in pairs.
Gene counts were obtained from BAM files using featureCounts version 2.0.0 (74). Very lowly expressed genes with average count across samples less than 1 were excluded from analysis. […]
Differential expression analysis was carried out between IFN-γ plus and minus samples (adjusting for viral status as a covariate) using the negative binomial GLM Wald test of DESeq2, where significance was assessed using the p-values adjusted for multiple comparisons under default settings. […]

Assay [5] has as its system MCC lines. The experiment in a line: Flow cytometry for HLA-I surface expression in MCC lines after interferon treatment. In kind it is cell-based, human. As to the method:
as §1

The mark [6] stands for this setting: IFN-γ, 8 IFN-γ-inducible MCC lines.

Chain of USP7 (Q93009 whole entry): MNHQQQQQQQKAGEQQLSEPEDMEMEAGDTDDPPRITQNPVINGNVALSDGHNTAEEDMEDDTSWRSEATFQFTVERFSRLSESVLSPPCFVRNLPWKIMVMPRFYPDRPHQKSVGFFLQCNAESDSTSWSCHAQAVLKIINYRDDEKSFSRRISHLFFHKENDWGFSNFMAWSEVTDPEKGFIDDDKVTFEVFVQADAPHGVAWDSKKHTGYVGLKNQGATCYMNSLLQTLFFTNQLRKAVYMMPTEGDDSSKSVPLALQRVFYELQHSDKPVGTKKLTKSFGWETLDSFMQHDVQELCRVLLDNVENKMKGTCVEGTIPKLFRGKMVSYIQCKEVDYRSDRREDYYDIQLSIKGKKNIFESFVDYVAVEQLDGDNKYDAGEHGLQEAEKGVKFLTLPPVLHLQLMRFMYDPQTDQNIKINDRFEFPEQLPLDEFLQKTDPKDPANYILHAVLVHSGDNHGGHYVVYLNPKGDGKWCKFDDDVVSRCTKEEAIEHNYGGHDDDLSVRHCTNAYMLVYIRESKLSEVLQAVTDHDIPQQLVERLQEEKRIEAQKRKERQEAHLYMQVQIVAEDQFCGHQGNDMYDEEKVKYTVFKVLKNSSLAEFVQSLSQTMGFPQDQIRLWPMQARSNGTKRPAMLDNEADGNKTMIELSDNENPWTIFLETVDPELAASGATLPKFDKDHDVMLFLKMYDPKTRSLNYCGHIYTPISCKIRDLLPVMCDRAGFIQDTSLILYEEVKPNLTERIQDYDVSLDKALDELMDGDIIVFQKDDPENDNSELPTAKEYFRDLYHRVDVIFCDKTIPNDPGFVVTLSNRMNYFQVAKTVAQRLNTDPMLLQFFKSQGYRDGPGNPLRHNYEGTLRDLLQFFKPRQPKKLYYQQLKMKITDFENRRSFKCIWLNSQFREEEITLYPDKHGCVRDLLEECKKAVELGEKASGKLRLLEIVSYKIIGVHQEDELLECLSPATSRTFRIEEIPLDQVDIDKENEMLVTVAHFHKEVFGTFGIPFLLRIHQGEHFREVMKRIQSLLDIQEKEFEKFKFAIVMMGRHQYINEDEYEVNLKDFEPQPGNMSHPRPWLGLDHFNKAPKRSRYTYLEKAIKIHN

With TSDKAIELY, in the assay on MCC cell lines (MCC-367 line, baseline vs IFN-γ), the “detection of the epitope in the HLA-I peptidome” value was “detected only after IFN-γ treatment and not at baseline”. The “reactivity of autologous T cells (IFN-γ ELISpot)” value in [1] is recorded as “confirmed reactivity”.
“Polyinosinic-Polycytidylic Acid-poly-L-lysine Carboxymethylcellulose [poly-ICLC]”: the “differentially expressed genes versus placebo” value in the assay with healthy human volunteers is “up to 212 genes”. Further, the “patients with induction of CD4+ and CD8+ T cell and antibody responses to the peptide” value in assay [2] is recorded as more than 90%.
`CN1CCN(CCC(=O)Nc2ccc3c(=O)n(CC4(O)CCN(C(=O)[C@H](CCCNC(=O)c5ccc6c(Cl)c7c(nc6c5)CCCC7)Cc5ccccc5)CC4)cnc3c2)CC1` [XL177B]: at USP7, the on-target activity result was “on-target activity at higher doses” and the “potency relative to XL177A (fold less potent)” value is reported as 500 fold.
Consider `C[C@]12CC[C@@H]3c4ccc(OC(=O)N(CCCl)CCCl)cc4CC[C@H]3[C@@H]1CC[C@@H]2O` [estramustine], for which the “patients with >50% decrease in serum PSA” value in assay [3] is 54%.
Take IFN-γ: known inducer of HLA-I: the HLA-DR expression result with MCC-301 cell line is “inducible HLA-DR expression; also recorded: upregulated HLA-DR expression”. Moreover, the “increase in abundance of class I bound peptides (median)” value with MCC cell lines (across 4 cell lines) turned out to be 25 fold. Further, the “increase in abundance of class I bound peptides (median)” value with MCC cell lines (across 7 cell lines, comparable input material) is 12 fold. Further, in the assay with MCC cell lines (cell lines with vs without IFN-γ), the “change in frequencies of peptides mapping to each HLA allele” value is reported as “increase in HLA-B-presented peptides”. The “class I gene expression (RNA-seq)” value with MCC lines [4] is “markedly upregulated class I genes; also recorded: markedly upregulated class I gene transcripts”. Further, the “HLA-I fold increase in MFI” value with MCC lines [5] (IFN-γ exposure, MCC-336, -350, -358) is given as not above 1.15 fold. Further, in the assay on MCC lines [5] (setting [6]), the “HLA I surface expression, fold increase by MFI (median)” value stood at 5.7 fold and the “HLA I surface expression, fold increase by MFI (range)” value is given as 2.5 - 12.4 fold. The “response of HLA I surface expression to IFN-γ exposure” value with MCC lines [5] (MCC-336, -350, -358) is “not responsive”.
